{"source": "paper PMC7642786", "about": "“Experimental phasing with vanadium and application to nucleotide-binding membrane proteins” (IUCrJ, 2020)", "molecular_target": "T1, McjD (antibacterial peptide ATP-binding cassette transporter) (Escherichia coli, UniProt Q9X2W0)", "T1 construct": "full-length, detergent (dodecyl maltopyranoside) purified, ~66 kDa, 580 residues per vanadium, homodimer; prepared as described previously", "T1 sequence (Q9X2W0 whole entry)": "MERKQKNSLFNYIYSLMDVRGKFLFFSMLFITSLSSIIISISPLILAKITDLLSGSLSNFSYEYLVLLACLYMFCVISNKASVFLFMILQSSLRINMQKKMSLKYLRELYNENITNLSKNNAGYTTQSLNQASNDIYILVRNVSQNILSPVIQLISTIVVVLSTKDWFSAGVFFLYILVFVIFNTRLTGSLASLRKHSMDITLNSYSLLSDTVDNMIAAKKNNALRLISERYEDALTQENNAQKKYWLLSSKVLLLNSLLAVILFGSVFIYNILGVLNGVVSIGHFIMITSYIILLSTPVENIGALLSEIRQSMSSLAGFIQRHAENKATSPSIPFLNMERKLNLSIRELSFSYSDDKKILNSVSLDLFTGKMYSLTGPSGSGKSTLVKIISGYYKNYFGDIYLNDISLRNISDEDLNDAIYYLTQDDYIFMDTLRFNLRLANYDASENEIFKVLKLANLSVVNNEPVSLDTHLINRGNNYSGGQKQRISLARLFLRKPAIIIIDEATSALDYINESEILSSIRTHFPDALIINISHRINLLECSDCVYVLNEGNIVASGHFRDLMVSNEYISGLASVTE", "test": "X-ray crystallography (V-SAD, […] Å, phased anomalous difference maps)", "settings": "complex formed with 2 mM ATP, 2 mM sodium orthovanadate, 5 mM MgCl2, pH 7.8; post-hydrolysis ADP-VO4 state; one site per monomer", "data": [{"smiles": "[O]=[V]([OH])([OH])[OH]", "note": "[VO4]", "values": [{"measurement": "X-ray crystallography (V-SAD, 3.4 Å, phased anomalous difference maps)", "result": "two vanadium sites (one per monomer) could easily be located"}]}]}
